From US8541460B2, “PDK-1/Akt signaling inhibitors” (The Ohio State University, priority 2003, dated 2013)

Experiments:
SK-OV-3 = assay: NCI DTP cell line screen (SRB), Ovarian Cancer; type: cell-based, human
Description: (§1) Screening of compounds 70 and 71 against several cancer cell lines The human tumor cell lines of the cancer screening panel are grown in RPMI 1640 medium containing 5% fetal bovine serum and 2 mM L-glutamine. For a typical screening experiment, cells are inoculated into 96 well microtiter plates in 100 μL at plating densities ranging from 5,000 to 40,000 cells/well depending on the doubling time of individual cell lines. After cell inoculation, the microtiter plates are incubated at 37° C., 5% CO2, 95% air and 100% relative humidity for 24 h prior to addition of experimental drugs.
(§2) After 24 h, two plates of each cell line are fixed in situ with TCA, to represent a measurement of the cell population for each cell line at the time of drug addition (Tz). Experimental drugs are solubilized in dimethyl sulfoxide at 400-fold the desired final maximum test concentration and stored frozen prior to use. At the time of drug addition, an aliquot of frozen concentrate is thawed and diluted to twice the desired final maximum test concentration with complete medium containing 50 μg/ml gentamicin. Additional four, 10-fold or ½ log serial dilutions are made to provide a total of five drug concentrations plus control. Aliquots of 100 μl of these different drug dilutions are added to the appropriate microtiter wells already containing 100 μl of medium, resulting in the required final drug concentrations.
(§3) Following drug addition, the plates are incubated for an additional 48 h at 37° C., 5% CO2, 95% air, and 100% relative humidity. For adherent cells, the assay is terminated by the addition of cold TCA. Cells are fixed in situ by the gentle addition of 50 μl of cold 50% (w/v) TCA (final concentration, 10% TCA) and incubated for 60 minutes at 4° C. The supernatant is discarded, and the plates are washed five times with tap water and air dried. Sulforhodamine B (SRB) solution (100 μl) at 0.4% (w/v) in 1% acetic acid is added to each well, and plates are incubated for 10 minutes at room temperature. After staining, unbound dye is removed by washing five times with 1% acetic acid and the plates are air dried. Bound stain is subsequently solubilized with 10 mM trizma base, and the absorbance is read on an automated plate reader at a wavelength of 515 nm. For suspension cells, the methodology is the same except that the assay is terminated by fixing settled cells at the bottom of the wells by gently adding 50 μl of 80% TCA (final concentration, 16% TCA). Using the seven absorbance measurements [time zero, (Tz), control growth, (C), and test growth in the presence of drug at the five concentration levels (Ti)], the percentage growth is calculated at each of the drug concentrations levels. Percentage growth inhibition is calculated as: [(Ti−Tz)/(C−Tz)]×100 for concentrations for which Ti>/=Tz [(Ti−Tz)/Tz]×100 for concentrations for which Ti<Tz
(§4) Three dose response parameters are calculated for each experimental agent. […] The drug concentration resulting in total growth inhibition (TGI) is calculated from Ti=Tz. […] Values are calculated for each of these three parameters if the level of activity is reached; however, if the effect is not reached or is exceeded, the value for that parameter is expressed as greater or less than the maximum or minimum concentration tested.
(§5) The methods described were used to test compounds 70 and 71 on a panel of sixty cell lines under a screening service provided by the Developmental Therapeutics Program at the National Institutes of Health. Shown in FIG. 1C are 1, RPMI-8226 leukemia cells; 2; NCI-H322M non-small cell lung cancer cells; 3, HT29 colon cancer cells; 4, U251 CNS cancer cells; 5, SK-MEL-28 melanoma cancer cells; 6, SK-OV-3 ovarian cancer cells; 7, RXF 393 renal cancer cells; 8, PC-3 prostate cancer cells; 9, MDA-MB-231 breast cancer cells.

MCF7 = assay: NCI DTP cell line screen (SRB), Breast Cancer; type: cell-based, human; conditions: MCF7
Description: as §1, §2, §3, §4, §5

MDA-MB-435 = assay: NCI DTP cell line screen (SRB), Breast Cancer; type: cell-based, human
Description: as §1, §2, §3, §4, §5

DU-145 = assay: NCI DTP cell line screen (SRB), Prostate Cancer; type: cell-based
Description: as §1, §2, §3, §4, §5

PC-3 = assay: NCI DTP cell line screen (SRB), Prostate Cancer; type: cell-based
Description: as §1, §2, §3, §4, §5

HOP-92 = assay: NCI DTP cell line screen (SRB), Non-Small Cell Lung Cancer; type: cell-based
UACC-62 = assay: NCI DTP cell line screen (SRB), Melanoma; type: cell-based
786-0 = assay: NCI DTP cell line screen (SRB), Renal Cancer; type: cell-based
Description: as §1, §2, §3, §4, §5

## NCC(=O)Nc1ccc(-n2nc(C(F)(F)F)cc2-c2ccc3c(ccc4ccccc43)c2)cc1 [Compound 70, 2-Amino-N-{4-[5-(2-phenanthrenyl)-3-(trifluoromethyl)-1H-pyrazol-1-yl]-phenyl}-acetamide]
SK-OV-3
  TGI: 2.96E−06
SK-OV-3; Log10 Concentration −4.0
  Percent Growth: −24%
SK-OV-3; Log10 Concentration −5.0
  Percent Growth: −79%
SK-OV-3; Log10 Concentration −6.0
  Percent Growth: 71%
SK-OV-3; Log10 Concentration −7.0
  Percent Growth: 98%
SK-OV-3; Log10 Concentration −8.0
  Percent Growth: 91%
MCF7; Log10 Concentration −4.0
  Percent Growth: −44%
MCF7; Log10 Concentration −5.0
  Percent Growth: −57%
MCF7; Log10 Concentration −6.0
  Percent Growth: 43%
MCF7; Log10 Concentration −7.0
  Percent Growth: 89%
MCF7; Log10 Concentration −8.0
  Percent Growth: 91%
MCF7; in M (unit assumed)
  TGI: 2.72E−06
MDA-MB-435; Log10 Concentration −4.0
  Percent Growth: −14%
MDA-MB-435; Log10 Concentration −5.0
  Percent Growth: −69%
MDA-MB-435; Log10 Concentration −6.0
  Percent Growth: 68%
MDA-MB-435; Log10 Concentration −7.0
  Percent Growth: 98%
MDA-MB-435; Log10 Concentration −8.0
  Percent Growth: 103%
MDA-MB-435; in M (unit assumed)
  TGI: 3.14E−06
DU-145
  TGI: 3.47E−06
DU-145; Log10 Concentration −4.0
  Percent Growth: −60%
DU-145; Log10 Concentration −5.0
  Percent Growth: −76%
DU-145; Log10 Concentration −6.0
  Percent Growth: 90%
DU-145; Log10 Concentration −7.0
  Percent Growth: 109%
DU-145; Log10 Concentration −8.0
  Percent Growth: 105%
PC-3
  TGI: 2.38E−06
PC-3; Log10 Concentration −4.0
  Percent Growth: −55%
PC-3; Log10 Concentration −5.0
  Percent Growth: −77%
PC-3; Log10 Concentration −6.0
  Percent Growth: 47%
PC-3; Log10 Concentration −7.0
  Percent Growth: 69%
PC-3; Log10 Concentration −8.0
  Percent Growth: 89%
HOP-92
  TGI: 3.07E−06
HOP-92; Log10 Concentration −4.0
  Percent Growth: −75%
HOP-92; Log10 Concentration −5.0
  Percent Growth: −91%
HOP-92; Log10 Concentration −6.0
  Percent Growth: 87%
HOP-92; Log10 Concentration −7.0
  Percent Growth: 89%
HOP-92; Log10 Concentration −8.0
  Percent Growth: 96%
UACC-62
  TGI: 3.15E−06
UACC-62; Log10 Concentration −4.0
  Percent Growth: −46%
UACC-62; Log10 Concentration −5.0
  Percent Growth: −80%
UACC-62; Log10 Concentration −6.0
  Percent Growth: 79%
UACC-62; Log10 Concentration −7.0
  Percent Growth: 94%
UACC-62; Log10 Concentration −8.0
  Percent Growth: 105%
786-0
  TGI: 2.85E−06
786-0; Log10 Concentration −4.0
  Percent Growth: −54%
786-0; Log10 Concentration −5.0
  Percent Growth: −72%
786-0; Log10 Concentration −6.0
  Percent Growth: 60%
786-0; Log10 Concentration −7.0
  Percent Growth: 95%
786-0; Log10 Concentration −8.0
  Percent Growth: 104%
